Test results as given in US20240368158A1, “KINASE MODULATORS, COMPOSITIONS COMPRISING THE KINASE MODULATOR, AND METHODS OF USING THE SAME” (BIOFRONT LTD, priority 2021, published 2024).

Legend:
HPK1 = target: T1, HPK1 (Homo sapiens, UniProt Q92918); assay: HPK1 enzyme inhibition assay (ADP-Glo); format: biochemical; details: MBP substrate, ATP
T1 construct: purchased Signal Chem M23-11G-10
T1 sequence (Q92918 1-346 limits assumed): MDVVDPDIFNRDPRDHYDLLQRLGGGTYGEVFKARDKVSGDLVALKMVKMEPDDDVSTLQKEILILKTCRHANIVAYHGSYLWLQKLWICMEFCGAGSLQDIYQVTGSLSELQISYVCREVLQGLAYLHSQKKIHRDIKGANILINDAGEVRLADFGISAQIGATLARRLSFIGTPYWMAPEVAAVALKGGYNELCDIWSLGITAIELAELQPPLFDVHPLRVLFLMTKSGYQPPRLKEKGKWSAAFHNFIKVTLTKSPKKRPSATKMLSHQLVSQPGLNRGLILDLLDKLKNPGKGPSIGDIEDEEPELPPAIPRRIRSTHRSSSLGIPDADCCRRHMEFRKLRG
Experimental: The compound was dissolved in 100% DMSO at the concentration of 10 mM. The HPK1 protein was purchased from Signal Chem (M23-11G-10). 2.5 μL per well of 2×HPK1 protein was added to assay plate containing the test compound, centrifuged at 1500 rpm for 1 minute, and then incubated at 25° C. for 60 minutes. MBP protein was purchased from Signal Chem (M42-51N) and ATP was purchased from Promega (V9102). The two were added 2.5 μL per well mixture of 2×MBP (0.2 ug/ul) and ATP (20 μM), centrifuged at 1500 rpm for 1 minute, then incubated at 25° C. for 60 minutes. Then added 5 μL of ADP-Glo from Promega (V9102) to the assay plate and depleted the unconsumed ATP for 60 minutes. Then centrifuged at 1500 rpm for 1 minute and incubated at 25° C. for 60 minutes. Finally, 10 μL of the kinase assay reagent from Promega (V9102) was added to the assay plate to convert ADP to ATP, centrifuged at 1500 rpm for 1 minute, incubate at 25° C. for 40 minutes. After 40 minutes incubation, the […] was determined. Based on the results, the IC50 value of the compound was calculated.

[1] = tested on: HPK1 p-SLP-76 in Jurkat cells; assay: HPK1 p-SLP-76 inhibition assay in Jurkat cells (HTRF); format: cell-based; details: Homo sapiens, 4 h compound, anti-CD3 stimulation 20 min
Experimental: Before compound treatment, Jurkat cells were starved in PRMI-1640 medium supplemented with 0.5% FBS overnight. The cell density was adjusted to 1*10^7 cells/mL in assay medium (RPMI-1640 no phenol red with 0.5% FBS) and 16 uL cell suspension was transferred per well to a 384-well plate (Corning #3765). […] of test compound was prepared in assay medium and 4 uL was added per well to the 384-well plate. The plate was then incubated at 37° C., 5% CO2 for 4 h. Jurkat cells in 384-well plate were stimulated with anti-CD3 (BD Biosciences #555329, final conc. is 10 ug/mL) for 20 min at 37° C., 5% CO2 by adding 4 uL 6× antibody solution per well. Phospho-SLP76 HTRF kit was purchased from Cisbio (63ADK076PEH). 8 uL 4× Lysis Buffer was added to 384-well plate after anti-CD3 stimulation. The plate was centrifuged at 1,000 rpm for 1 min, shaken at 250 rpm for 60 min and centrifuged again at 1,000 rpm for 5 min. Afterwards the cell lysates were transferred to the assay plate (Greiner #784075) with 16 uL per well. 4 uL detection antibody mix per well prepared in Detection Buffer was added to the assay plate, followed by centrifugation at 1,000 rpm for 1 min and incubation at 25° C. overnight. The fluorescence emission at two different wavelengths (665 nm and 620 nm) was read by an HTRF compatible microplate reader and the IC50 value of the compound was calculated.

FLT3-ITD = target: T2, FLT3-ITD (Homo sapiens, UniProt P36888); assay: FLT3-ITD enzyme inhibition assay (HTRF KinEASE-TK); format: biochemical; details: FLT3-ITD protein, ATP 15 μM
T2 construct: The FLT3-ITD protein was purchased from Invitrogen (PV6190)
T2 sequence (P36888 1-993): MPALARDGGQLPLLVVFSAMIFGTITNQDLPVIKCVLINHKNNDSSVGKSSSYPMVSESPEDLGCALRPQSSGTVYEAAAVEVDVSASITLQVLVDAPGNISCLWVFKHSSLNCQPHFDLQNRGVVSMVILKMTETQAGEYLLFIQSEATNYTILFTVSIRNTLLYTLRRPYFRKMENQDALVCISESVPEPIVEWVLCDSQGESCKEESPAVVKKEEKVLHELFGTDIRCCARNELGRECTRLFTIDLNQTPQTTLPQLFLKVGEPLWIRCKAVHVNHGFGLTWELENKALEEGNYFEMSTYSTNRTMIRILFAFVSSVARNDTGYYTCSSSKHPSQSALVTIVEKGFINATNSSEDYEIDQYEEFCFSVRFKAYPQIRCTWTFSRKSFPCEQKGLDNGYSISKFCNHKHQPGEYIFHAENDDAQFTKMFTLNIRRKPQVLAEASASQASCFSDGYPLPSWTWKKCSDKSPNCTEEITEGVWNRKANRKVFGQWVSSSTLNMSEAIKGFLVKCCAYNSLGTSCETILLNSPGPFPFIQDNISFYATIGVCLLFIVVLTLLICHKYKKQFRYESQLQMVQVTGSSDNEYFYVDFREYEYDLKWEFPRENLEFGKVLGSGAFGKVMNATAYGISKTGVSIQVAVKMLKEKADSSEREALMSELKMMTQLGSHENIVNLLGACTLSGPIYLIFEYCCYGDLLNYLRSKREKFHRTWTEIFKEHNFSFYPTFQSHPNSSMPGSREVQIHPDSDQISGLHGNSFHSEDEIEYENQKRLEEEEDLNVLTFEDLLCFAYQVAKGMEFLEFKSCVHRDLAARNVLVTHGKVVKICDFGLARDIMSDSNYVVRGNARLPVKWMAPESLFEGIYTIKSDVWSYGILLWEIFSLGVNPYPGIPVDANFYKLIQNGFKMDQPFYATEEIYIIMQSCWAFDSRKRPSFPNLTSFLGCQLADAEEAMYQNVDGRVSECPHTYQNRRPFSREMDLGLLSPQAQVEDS
Experimental: The compound was dissolved in 100% DMSO at the concentration of 10 mM. The FLT3-ITD protein was purchased from Invitrogen (PV6190). 5 μL per well of 2×FLT3-ITD protein was added to assay plate containing the test compound, centrifuged at 1000 rpm for 1 minute, and then incubated at 25° C. for 15 minutes. HTRF KinEASE-TK kit was purchased from Cisbio (62TK0PEC) and ATP was purchased from Thermo Fisher Scientific (R0441). TK-Substrate-biotin and ATP were added 5 μL per well mixture of 2×TK-Substrate-biotin (final conc. is […]) and ATP (final conc. is 15 μM), centrifuged at 1000 rpm for 1 minute, then incubated at 25° C. for 60 minutes. Then added 10 μL of detection buffer (0.25×TK-antibody Eu3+-cryptate, 0.125 μM streptavidine-XL 665) to the assay plate and centrifuged at 1000 rpm for 1 minute then incubated at 25° C. for 60 minutes and 4° C. incubated for overnight, the product was determined. Based on the results, the IC50 value of the compound was calculated.

SMILES | IC50 (HPK1) | IC50 [1] | IC50 (FLT3-ITD)
CCc1c[nH]c2ncc(-c3cccc(N4CCN(C(=O)[C@@H](N)Cc5ccccc5)CC4=O)c3)c(Cl)c12 [Example 43, 4-(L-phenylalanyl)-1-(3-(4-chloro-3-ethyl-1H-pyrrolo[2,3-b]pyridin-5-yl)phenyl)piperazin-2-one] | ≤ 10 nM | 3000 to 10000 nM | 10 to 100 nM
CCc1c[nH]c2ncc(-c3cccc(N4CCN(C(=O)CNC(=O)[C@@H](N)C(C)C)CC4=O)c3)c(Cl)c12 [Example 44, (S)-2-amino-N-(2-(4-(3-(4-chloro-3-ethyl-1H-pyrrolo[2,3-b]pyridin-5-yl)phenyl)-3-oxopiperazin-1-yl)-2-oxoethyl)-3-methylbutanamide] | ≤ 10 nM | 300 to 3000 nM | ≤ 10 nM
CCc1c[nH]c2ncc(-c3cccc(N4CCN(C(=O)COC)CC4=O)c3)c(Cl)c12 [Example 25, 1-(3-(4-chloro-3-ethyl-1H-pyrrolo[2,3-b]pyridin-5-yl)phenyl)-4-(2-methoxyacetyl)piperazin-2-one] | ≤ 10 nM | ≤ 300 nM | ≤ 10 nM
O=C1CNCCN1c1cccc(-c2cnc3[nH]cc(C#Cc4ccccn4)c3c2Cl)c1 [Example 7, 1-(3-(4-chloro-3-(pyridin-2-ylethynyl)-1H-pyrrolo[2,3-b]pyridin-5-yl)phenyl) piperazin-2-one] | 10 to 100 nM | 3000 to 10000 nM | 10 to 100 nM
CCc1c[nH]c2ncc(-c3nc(N4CCNCC4=O)sc3C)c(Cl)c12 [Example 20, 1-(4-(4-chloro-3-ethyl-1H-pyrrolo[2,3-b]pyridin-5-yl)-5-methylthiazol-2-yl)piperazin-2-one] | 100 to 1000 nM | > 10000 nM | 10 to 100 nM
CS(=O)(=O)N1CCN(c2cccc(-c3cnc4[nH]cc(C5CC5)c4c3Cl)c2)C(=O)C1 [Example 53, 1-(3-(4-chloro-3-cyclopropyl-1H-pyrrolo[2,3-b]pyridin-5-yl)phenyl)-4-(methylsulfonyl)piperazin-2-one] | ≤ 10 nM | 300 to 3000 nM | ≤ 10 nM
CCc1c[nH]c2ncc(-c3cccc(N4CCN(C(=O)CCCO[C@@H]5O[C@H](CO)[C@@H](O)[C@H](O)[C@H]5O)CC4=O)c3)c(Cl)c12 [Example 48, 1-(3-(4-chloro-3-ethyl-1H-pyrrolo[2,3-b]pyridin-5-yl)phenyl)-4-(4-(((2R,3R,4S,5S,6R)-3,4,5-trihydroxy-6-(hydroxymethyl)tetrahydro-2H-pyran-2-yl)oxy)butanoyl)piperazin-2-one] | ≤ 10 nM | > 10000 nM | ≤ 10 nM
CCc1c[nH]c2ncc(-c3cccc(N4CCN(C(=O)COc5ccc(C[C@@H](N)C(=O)O)cc5)CC4=O)c3)c(Cl)c12 [Example 45, (R)-2-amino-3-(4-(2-(4-(3-(4-chloro-3-ethyl-1H-pyrrolo[2,3-b]pyridin-5-yl)phenyl)-3-oxopiperazin-1-yl)-2-oxoethoxy)phenyl)propanoic acid] | ≤ 10 nM | > 10000 nM | ≤ 10 nM
CCc1c[nH]c2ncc(-c3cccc(N4CCN(C(=O)COc5cccc(C6O[C@H](CO)[C@@H](O)[C@H](O)[C@H]6O)c5)CC4=O)c3)c(Cl)c12 (stereo partly drawn) [Example 50, 1-(3-(4-chloro-3-ethyl-1H-pyrrolo[2,3-b]pyridin-5-yl)phenyl)-4-(2-(3-((3R,4R,5S,6R)-3,4,5-trihydroxy-6-(hydroxymethyl)tetrahydro-2H-pyran-2-yl)phenoxy)acetyl)piperazin-2-one] | ≤ 10 nM | 300 to 3000 nM | ≤ 10 nM
CCc1c[nH]c2ncc(-c3cccc(N4CCN(C(=O)CC[C@H](NC(=O)c5ccc(NCc6cnc7nc(N)[nH]c(=O)c7n6)cc5)C(=O)O)CC4=O)c3)c(Cl)c12 [Example 47, (S)-2-(4-(((2-amino-4-oxo-3,4-dihydropteridin-6-yl)methyl)amino)benzamido)-5-(4-(3-(4-chloro-3-ethyl-1H-pyrrolo[2,3-b]pyridin-5-yl)phenyl)-3-oxopiperazin-1-yl)-5-oxopentanoic acid] | 10 to 100 nM | > 10000 nM | –
CCc1c[nH]c2ncc(-c3cccc(N4CCNCC4=O)n3)c(Cl)c12 [Example 9, 1-(6-(4-chloro-3-ethyl-1H-pyrrolo[2,3-b]pyridin-5-yl)pyridin-2-yl)piperazin-2-one] | ≤ 10 nM | 300 to 3000 nM | –
O=C1CN(S(=O)(=O)CCCN2CCOCC2)CCN1c1cccc(-c2cnc3[nH]cc(CC(F)F)c3c2Cl)c1 [Example 59, 1-(3-(4-chloro-3-(2,2-difluoroethyl)-1H-pyrrolo[2,3-b]pyridin-5-yl)phenyl)-4-((3-morpholinopropyl)sulfonyl)piperazin-2-one] | ≤ 10 nM | 300 to 3000 nM | –
CN(C)CCCS(=O)(=O)N1CCN(c2cccc(-c3cnc4[nH]cc(CC(F)F)c4c3Cl)c2)C(=O)C1 [Example 60, 1-(3-(4-chloro-3-(2,2-difluoroethyl)-1H-pyrrolo[2,3-b]pyridin-5-yl)phenyl)-4-((3-(dimethylamino)propyl)sulfonyl)piperazin-2-one] | ≤ 10 nM | 300 to 3000 nM | ≤ 10 nM
